Measurements from US11377442B2, “Small molecule agonists and antagonists of NR2F6 activity” (ZANDER THERAPEUTICS, INC., priority 2016, dated 2022).
Read-outs that look alike come from different tables or passages of the source.

Columns and labels:
Type in all cases: cell-based
NR2F6 = biological target: T1, NR2F6 (Homo sapiens, UniProt P10588); assay: NR2F6 agonist screening, Firefly signal cmpd/DMSO
T1 construct: expressed in transfected cells; also transient transfection
T1 sequence (P10588 1-404): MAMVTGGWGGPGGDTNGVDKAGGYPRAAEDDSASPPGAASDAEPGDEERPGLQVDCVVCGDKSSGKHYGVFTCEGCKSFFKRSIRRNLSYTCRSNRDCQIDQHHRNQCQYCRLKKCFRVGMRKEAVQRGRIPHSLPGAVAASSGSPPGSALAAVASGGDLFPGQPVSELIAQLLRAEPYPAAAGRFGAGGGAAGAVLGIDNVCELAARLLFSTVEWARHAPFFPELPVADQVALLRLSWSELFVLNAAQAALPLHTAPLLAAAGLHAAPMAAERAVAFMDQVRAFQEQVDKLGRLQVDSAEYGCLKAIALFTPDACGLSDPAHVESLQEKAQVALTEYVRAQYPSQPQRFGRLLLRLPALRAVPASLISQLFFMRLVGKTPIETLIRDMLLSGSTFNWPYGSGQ

Renilla = Renilla signal in NR2F6 agonist screening, cmpd/DMSO; settings: Renilla, F4
HEK293 pGL4 = assay: Firefly_pGL signal, cmpd/DMSO (pGL4 control cells); settings: Homo sapiens
NR2F6 LBD = biological target: T2, NR2F6 LBD (Homo sapiens, UniProt P10588); assay: NR2F6 LBD transient transfection; settings: LBD
T2 construct: expressed in transfected cells
T2 sequence (P10588 165-393 limits assumed): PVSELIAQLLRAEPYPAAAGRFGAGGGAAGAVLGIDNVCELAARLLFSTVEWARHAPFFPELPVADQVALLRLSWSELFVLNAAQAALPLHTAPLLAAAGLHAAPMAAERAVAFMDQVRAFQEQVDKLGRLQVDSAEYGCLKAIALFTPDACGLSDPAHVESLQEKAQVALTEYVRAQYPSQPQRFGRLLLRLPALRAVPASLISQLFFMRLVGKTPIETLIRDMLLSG
How it was run: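 LBD-transfected cells treated at 40, 10, 2 and 0.5 μM (4 replicates); cytotoxicity measured in parallel, normalized to DMSO (0%) and zero signal (100%). Higher concentrations excluded where signal loss reflected toxicity.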

[1] = read-out: Renilla, F4, cmpd/DMSO (mean)
[2] = 1% FBS, read-out: Renilla, F4, 1% FBS, cmpd/DMSO (mean)
[3] = 10% FBS, read-out: Renilla, F4, 10% FBS, cmpd/DMSO (mean)
[4] = HEK293, 0.5 uM, pGL4, read-out: Firefly pGL4, cmpd/DMSO (mean)
[5] = HEK293, 2 uM, pGL4, read-out: Firefly pGL4, cmpd/DMSO (mean)
[6] = HEK293, 10 uM, pGL4, read-out: Firefly pGL4, cmpd/DMSO (mean)
[7] = HEK293, 40 uM, pGL4, read-out: Firefly pGL4, cmpd/DMSO (mean)
[8] = HEK293, pGL4, 1% FBS, 0.5 uM, read-out: Firefly, pGL4, 1% FBS, cmpd/DMSO (mean)
[9] = HEK293, pGL4, 1% FBS, 2 uM, read-out: Firefly, pGL4, 1% FBS, cmpd/DMSO (mean)
[10] = HEK293, pGL4, 1% FBS, 10 uM, read-out: Firefly, pGL4, 1% FBS, cmpd/DMSO (mean)
[11] = HEK293, pGL4, 1% FBS, 40 uM, read-out: Firefly, pGL4, 1% FBS, cmpd/DMSO (mean)
[12] = HEK293, pGL4, 10% FBS, 0.5 uM, read-out: Firefly, pGL4, 10% FBS, cmpd/DMSO (mean)
[13] = HEK293, pGL4, 10% FBS, 2 uM, read-out: Firefly, pGL4, 10% FBS, cmpd/DMSO (mean)
[14] = HEK293, pGL4, 10% FBS, 10 uM, read-out: Firefly, pGL4, 10% FBS, cmpd/DMSO (mean)
[15] = HEK293, pGL4, 10% FBS, 40 uM, read-out: Firefly, pGL4, 10% FBS, cmpd/DMSO (mean)

O=S1(=O)C[C@H](NC2CCCCCC2)[C@@H](S(=O)(=O)c2ccc(Cl)cc2)C1 [Compound D130]
Firefly F4, cmpd/DMSO (mean) (NR2F6; 0.5 uM): 1.4
Firefly F4, cmpd/DMSO (mean) (NR2F6; 2 uM): 2.2
Firefly F4, cmpd/DMSO (mean) (NR2F6; 10 uM): 4.0
Firefly F4, cmpd/DMSO (mean) (NR2F6; 40 uM): 1.6
F4, Firefly/Renilla for S/B(F4) > 3 (NR2F6; 1% FBS, 10 uM): 2.3
Firefly, F4/pGL4 for S/B(F4) > 3 (NR2F6; 1% FBS, 10 uM): 1.8
F4, Firefly/Renilla for S/B(F4) > 3 (NR2F6; 10% FBS, 10 uM): 2.7
Firefly, F4/pGL4 for S/B(F4) > 3 (NR2F6; 10% FBS, 10 uM): 1.4
F4, Firefly/Renilla for S/B(F4) > 3 (NR2F6; 10% FBS, 40 uM): 2.4
Firefly, F4/pGL4 for S/B(F4) > 3 (NR2F6; 10% FBS, 40 uM): 2.0
Firefly, F4, 1% FBS, cmpd/DMSO (mean) (NR2F6; 1% FBS, 0.5 uM): 0.7
Firefly, F4, 1% FBS, cmpd/DMSO (mean) (NR2F6; 1% FBS, 2 uM): 1.2
Firefly, F4, 1% FBS, cmpd/DMSO (mean) (NR2F6; 1% FBS, 10 uM): 3.6
Firefly, F4, 1% FBS, cmpd/DMSO (mean) (NR2F6; 1% FBS, 40 uM): 0.6
Firefly, F4, 10% FBS, cmpd/DMSO (mean) (NR2F6; 10% FBS, 0.5 uM): 1.1
Firefly, F4, 10% FBS, cmpd/DMSO (mean) (NR2F6; 10% FBS, 2 uM): 1.2
Firefly, F4, 10% FBS, cmpd/DMSO (mean) (NR2F6; 10% FBS, 10 uM): 3.4
Firefly, F4, 10% FBS, cmpd/DMSO (mean) (NR2F6; 10% FBS, 40 uM): 5.0
fold induction at 0.5 µM (Renilla; [1]): 1.1
fold induction at 2 µM (Renilla; [1]): 1.2
fold induction at 10 µM (Renilla; [1]): 1.5
fold induction at 40 µM (Renilla; [1]): 1.8
fold induction at 0.5 µM (Renilla; [2]): 1.1
fold induction at 2 µM (Renilla; [2]): 1.2
fold induction at 10 µM (Renilla; [2]): 1.6
fold induction at 40 µM (Renilla; [2]): 1.9
fold induction at 0.5 µM (Renilla; [3]): 0.8
fold induction at 2 µM (Renilla; [3]): 0.9
fold induction at 10 µM (Renilla; [3]): 1.3
fold induction at 40 µM (Renilla; [3]): 2.1
fold induction at 0.5 µM (HEK293 pGL4; [4]): 1.2
fold induction at 2 µM (HEK293 pGL4; [5]): 1.8
fold induction at 10 µM (HEK293 pGL4; [6]): 3.4
fold induction at 40 µM (HEK293 pGL4; [7]): 0.6
fold induction at 0.5 µM (HEK293 pGL4; [8]): 1.2
fold induction at 2 µM (HEK293 pGL4; [9]): 2
fold induction at 10 µM (HEK293 pGL4; [10]): 2
fold induction at 40 µM (HEK293 pGL4; [11]): 0.9
fold induction at 0.5 µM (HEK293 pGL4; [12]): 1
fold induction at 2 µM (HEK293 pGL4; [13]): 1.6
fold induction at 10 µM (HEK293 pGL4; [14]): 2.5
fold induction at 40 µM (HEK293 pGL4; [15]): 2.5
Firefly LBD, cmpd/DMSO (mean) (NR2F6 LBD; 0.5 uM): 1.1
Firefly LBD, cmpd/DMSO (mean) (NR2F6 LBD; 2 uM): 1.7
Firefly LBD, cmpd/DMSO (mean) (NR2F6 LBD; 10 uM): 3.1
Firefly LBD, cmpd/DMSO (mean) (NR2F6 LBD; 40 uM): 0.7

CCCCN(C)[C@H]1CS(=O)(=O)C[C@@H]1S(=O)(=O)c1ccc(Cl)cc1 [Compound D132]
Firefly F4, cmpd/DMSO (mean) (NR2F6; 0.5 uM): 1.5
Firefly F4, cmpd/DMSO (mean) (NR2F6; 2 uM): 1.9
Firefly F4, cmpd/DMSO (mean) (NR2F6; 10 uM): 5.5
Firefly F4, cmpd/DMSO (mean) (NR2F6; 40 uM): 1.1
F4, Firefly/Renilla for S/B(F4) > 3 (NR2F6; 1% FBS, 10 uM): 3.0
Firefly, F4/pGL4 for S/B(F4) > 3 (NR2F6; 1% FBS, 10 uM): 1.9
F4, Firefly/Renilla for S/B(F4) > 3 (NR2F6; 10% FBS, 10 uM): 2.0
Firefly, F4/pGL4 for S/B(F4) > 3 (NR2F6; 10% FBS, 10 uM): 1.2
F4, Firefly/Renilla for S/B(F4) > 3 (NR2F6; 10% FBS, 40 uM): 1.8
Firefly, F4/pGL4 for S/B(F4) > 3 (NR2F6; 10% FBS, 40 uM): 3.4
Firefly, F4, 1% FBS, cmpd/DMSO (mean) (NR2F6; 1% FBS, 0.5 uM): 0.7
Firefly, F4, 1% FBS, cmpd/DMSO (mean) (NR2F6; 1% FBS, 2 uM): 1.3
Firefly, F4, 1% FBS, cmpd/DMSO (mean) (NR2F6; 1% FBS, 10 uM): 5.0
Firefly, F4, 1% FBS, cmpd/DMSO (mean) (NR2F6; 1% FBS, 40 uM): 0.5
Firefly, F4, 10% FBS, cmpd/DMSO (mean) (NR2F6; 10% FBS, 0.5 uM): 0.9
Firefly, F4, 10% FBS, cmpd/DMSO (mean) (NR2F6; 10% FBS, 2 uM): 1.4
Firefly, F4, 10% FBS, cmpd/DMSO (mean) (NR2F6; 10% FBS, 10 uM): 3.3
Firefly, F4, 10% FBS, cmpd/DMSO (mean) (NR2F6; 10% FBS, 40 uM): 5.4
Activity, cmpd/DMSO (NR2F6; Table 31): 6.6
fold induction at 0.5 µM (Renilla; [1]): 1
fold induction at 2 µM (Renilla; [1]): 1.2
fold induction at 10 µM (Renilla; [1]): 1.7
fold induction at 40 µM (Renilla; [1]): 1.3
fold induction at 0.5 µM (Renilla; [2]): 1.1
fold induction at 2 µM (Renilla; [2]): 1.3
fold induction at 10 µM (Renilla; [2]): 1.7
fold induction at 40 µM (Renilla; [2]): 1.7
fold induction at 0.5 µM (Renilla; [3]): 0.9
fold induction at 2 µM (Renilla; [3]): 1.1
fold induction at 10 µM (Renilla; [3]): 1.6
fold induction at 40 µM (Renilla; [3]): 3
fold induction at 0.5 µM (HEK293 pGL4; [4]): 1.6
fold induction at 2 µM (HEK293 pGL4; [5]): 1.6
fold induction at 10 µM (HEK293 pGL4; [6]): 4.9
fold induction at 40 µM (HEK293 pGL4; [7]): 0.5
fold induction at 0.5 µM (HEK293 pGL4; [8]): 1
fold induction at 2 µM (HEK293 pGL4; [9]): 1.6
fold induction at 10 µM (HEK293 pGL4; [10]): 2.6
fold induction at 40 µM (HEK293 pGL4; [11]): 0.8
fold induction at 0.5 µM (HEK293 pGL4; [12]): 0.9
fold induction at 2 µM (HEK293 pGL4; [13]): 1.3
fold induction at 10 µM (HEK293 pGL4; [14]): 2.7
fold induction at 40 µM (HEK293 pGL4; [15]): 1.6
Firefly LBD, cmpd/DMSO (mean) (NR2F6 LBD; 0.5 uM): 1.1
Firefly LBD, cmpd/DMSO (mean) (NR2F6 LBD; 2 uM): 2.1
Firefly LBD, cmpd/DMSO (mean) (NR2F6 LBD; 10 uM): 4.3
Firefly LBD, cmpd/DMSO (mean) (NR2F6 LBD; 40 uM): 0.4
